The data set is described as follows: Tail vein toxicity. To be noted: male ICR mice, IV lateral tail vein, 20 mg/kg at 0, 24, 48 and 72 hours, monitored 7 days; in comparison to pseudomycin B. The format is in vivo. As for the experimental part: Mice were treated intravenously (IV) through the lateral tail vein with 0.1 ml of testing compound (20 mg/kg) at 0, 24, 48 and 72 hours. Two mice were included in each group. Compounds were formulated in 5.0% dextrose and sterile water for injection. The mice were monitored for 7 days following the first treatment and observed closely for signs of irritation including erythema, swelling, discoloration, necrosis, tail loss and any other signs of adverse effects indicating toxicity.
The mice used in the study were outbred, male ICR mice having an average weight between 18-20 g (available from Harlan Sprangue Dawley, Indianapolis, Ind.

`C/C=C1\NC(=O)[C@H]([C@H](C)O)NC(=O)[C@H](CCNC(=O)OCc2ccc(OP(=O)(OCc3ccccc3)OCc3ccccc3)cc2)NC(=O)[C@H](CCCCNC(=O)OCc2ccc(OP(=O)(OCc3ccccc3)OCc3ccccc3)cc2)NC(=O)[C@H](CC(=O)O)NC(=O)[C@@H](CCNC(=O)OCc2ccc(OP(=O)(OCc3ccccc3)OCc3ccccc3)cc2)NC(=O)[C@@H](NC(=O)CC(O)CCCCCCCCCCC)COC(=O)[C@H]([C@H](O)CCl)NC(=O)[C@H](C(O)C(=O)O)NC1=O` (stereo partly shown) [Compound 1A-1]: the tail vein toxicity entry is given as “improvement in tail vein toxicity”.

Values taken from patent publication US20030008814A1, “Pseudomycin phosphate prodrugs” (priority 2002, published 2003).
